Laboratory results taken from US9707178B2, “Pharmaceutical composition” (Lek Pharmaceuticals, d.d., priority 2006, dated 2017).

Columns and labels:
[1] = pH of excipient measured by a glass electrode, 1 g in 100 g of water at room temperature; type: physicochemical; details: aqueous solution or suspension
Text: In general we observed a best stabilization where each of the constituents being incorporated into a composition has a pH less than 9, preferably less than 8; but can have pH above 5. […] We have concluded that the excipients, being in contact with olmesartan medoxomil, being incorporated into a composition should preferably have a pH less that 8 if measured by a glass electrode in an aqueous solution or suspension containing 1 g of said excipient in 100 g of water at room temperature. Thus the pH of excipents uses in examples is as follows; lactose: about 5.2, L-HPC: about 6.7, MCC: about 6.7, stearic acid: about 5.4, Mg stearate: about 9.5, coating suspension (Example 3): about 6.6.

[2] = Stability of bulk olmesartan medoxomil in solution at different pH; type: physicochemical
Description: The main degradation product is olmesartan acid. […] In a solution at pH=7 the amount of formed olmesartan acid increases by 0.5% in 24 hours, while in 1M HCl the amount increases by approximately 6%. The amounts of individual and total impurities are measured in area % and determined by HPLC using the following procedure: a sample solution was prepared by diluting quantity of pulverized tablet equivalent to 25 mg of olmesartan medoxomil in 50 ml volumetric flask to volume with diluent (Eluent A+Eluent B=50%/50%). Column Waters Xbridge C18, 150×4.6 mm, 3.5 μm was used and eluted by Eluent A (0.025 M KH2PO4 adjusted to pH=2.5 with 50% H3PO4) and Eluent B (acetonitrile) with following gradient: A:B=100:0, from 15 to 30 minutes A:B=70:30, after 30 min A.B=0:100. Flow rate was […], Injection volume was 20 μl, column temperature was 30° C., detection wavelength at 225 nm.

| Structure (SMILES) | pH of excipient [1] | Hydrolysis at basic conditions ([2]; basic conditions) | pH range in which most stable ([2]; bulk) | Increase of amount of formed olmesartan acid ([2]; in 1M HCl) | Increase of amount of formed olmesartan acid ([2]; solution at pH=7, 24 hours) [%] |
| --- | --- | --- | --- | --- | --- |
| CCCCCCCCCCCCCCCCCC(=O)[O-].CCCCCCCCCCCCCCCCCC(=O)[O-].[Mg+2] [Mg stearate] | about 9.5 |  |  |  |  |
| CCCc1nc(C(C)(C)O)c(C(=O)OCc2oc(=O)oc2C)n1Cc1ccc(-c2ccccc2-c2nnn[nH]2)cc1 [olmesartan medoxomil, 4-(1-hydroxy-1-methylethyl)-2 propyl-1-[[2′-(1H-tetrazol-5-yl) [1,1′-biphenyl]-4-yl]methyl]-1H-imidazole-5-carboxylic acid (5-methyl-2-oxo-1,3-dioxol-4-yl)methyl ester] |  | almost completely hydrolyzes | 3-5 | approximately 6% | 0.5 |
| OC[C@H]1O[C@@H](O[C@H]2[C@H](O)[C@@H](O)C(O)O[C@@H]2CO)[C@H](O)[C@@H](O)[C@H]1O (stereo partly shown) [lactose] | about 5.2 |  |  |  |  |
| CCCCCCCCCCCCCCCCCC(=O)O [stearic acid] | about 5.4 |  |  |  |  |
